# What was measured:
# [1] = tested on: SKBR3 (PI3Kα-Wild Type) cell line; assay: HTRF phospho-AKT(S473) cell assay in SKBR3 cells; format: cell-based, human; conditions: Homo sapiens, SK-BR-3; HTRF phospho-AKT(S473), SKBR3 (PI3Kα-Wild Type) cells, 2 hours compound incubation, PDGF-BB stimulated
# In short: (§1)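 Cells plated overnight (T47D in RPMI/10% FBS/0.2 units/mL insulin; SKBR3 in McCoy's 5A/10% FBS), then given 12-point 1:3 compound series (top 5 μM T47D, 10 μM SKBR3; ≤0.5% DMSO) for 2 h at 37° C. SKBR3 stimulated with 70 ng/ml PDGF-BB for final 15 min. Lysate pAKT(S473) by HTRF; IC50 calculated.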
# [2] = tested on: T47D (PI3Kα-H1047R) cell line; assay: HTRF phospho-AKT(S473) cell assay in T47D cells; format: cell-based, human; conditions: Homo sapiens; HTRF phospho-AKT(S473), T47D (PI3Kα-H1047R) cells, 2 hours compound incubation
# In short: as §1
IC50 [1],IC50 [2],SMILES
1000 to 5000 nM,250 to 500 nM,"Cc1cc([C@@H](C)Nc2ccc(Cl)nc2C(=O)NS(C)(=O)=O)c2nc(N3Cc4cn(CC5CC5)nc4C3)n(C)c(=O)c2c1 [Compound 683, (R)-6-chloro-3-((1-(2-(2-(cyclopropylmethyl)-2,6-dihydropyrrolo[3,4-c]pyrazol-5(4H)-yl)-3,6-dimethyl-4-oxo-3,4-dihydroquinazolin-8-yl)ethyl)amino)-N-(methylsulfonyl) picolinamide]"
1000 to 5000 nM,< 250 nM,"Cc1cc([C@@H](C)Nc2ccc(Cl)nc2C(=O)NS(C)(=O)=O)c2nc(N3Cc4cn(Cc5ccccc5)nc4C3)n(C)c(=O)c2c1 [Compound 684, (R)-3-((1-(2-(2-benzyl-2,6-dihydropyrrolo[3,4-c]pyrazol-5(4H)-yl)-3,6-dimethyl-4-oxo-3,4-dihydroquinazolin-8-yl)ethyl)amino)-6-chloro-N-(methylsulfonyl) picolinamide]"
≥ 5000 nM,250 to 500 nM,"Cc1cc([C@@H](C)Nc2ccc(Cl)nc2C(=O)NS(C)(=O)=O)c2nc(N3CCC(n4ncc5ccccc54)CC3)n(C)c(=O)c2c1 [Compound 685, (R)-3-((1-(2-(4-(1H-indazol-1-yl)piperidin-1-yl)-3,6-dimethyl-4-oxo-3,4-dihydroquinazolin-8-yl)ethyl)amino)-6-chloro-N-(methylsulfonyl) picolinamide]"
250 to 500 nM,< 250 nM,"Cc1cc([C@@H](C)Nc2ccc(Cl)nc2C(=O)NS(C)(=O)=O)c2nc(N3CCC(n4cc(C#N)cn4)CC3)n(C)c(=O)c2c1 [Compound 686, (R)-6-chloro-3-((1-(2-(4-(4-cyano-1H-pyrazol-1-yl)piperidin-1-yl)-3,6-dimethyl-4-oxo-3,4-dihydroquinazolin-8-yl)ethyl)amino)-N-(methylsulfonyl) picolinamide]"
≥ 5000 nM,250 to 500 nM,"Cc1cc([C@@H](C)Nc2ccc(Cl)nc2C(=O)NS(C)(=O)=O)c2nc(N3CC[C@@H](c4ccccc4)C3)n(C)c(=O)c2c1 [Compound 687, 6-chloro-3-(((R)-1-(3,6-dimethyl-4-oxo-2-((S)-3-phenylpyrrolidin-1-yl)-3,4-dihydroquinazolin-8-yl)ethyl)amino)-N-(methylsulfonyl) picolinamide]"
≥ 5000 nM,250 to 500 nM,"Cc1cc([C@@H](C)Nc2ccc(Cl)nc2C(=O)NS(C)(=O)=O)c2nc(N3Cc4cn(-c5ccccn5)nc4C3)n(C)c(=O)c2c1 [Compound 688, (R)-6-chloro-3-((1-(3,6-dimethyl-4-oxo-2-(2-(pyridin-2-yl)-2,6-dihydropyrrolo[3,4-c]pyrazol-5(4H)-yl)-3,4-dihydroquinazolin-8-yl)ethyl)amino)-N-(methylsulfonyl) picolinamide]"
1000 to 5000 nM,< 250 nM,"Cc1cc([C@@H](C)Nc2ccc(Cl)nc2C(=O)NS(C)(=O)=O)c2nc(N3CCO[C@H](c4ccccc4)C3)n(C)c(=O)c2c1 [Compound 689, 6-chloro-3-(((R)-1-(3,6-dimethyl-4-oxo-2-((R)-2-phenylmorpholino)-3,4-dihydroquinazolin-8-yl)ethyl)amino)-N-(methylsulfonyl) picolinamide]"
1000 to 5000 nM,< 250 nM,"Cc1cc([C@@H](C)Nc2ccc(Cl)nc2C(=O)NS(C)(=O)=O)c2nc(N3CCC4(CCOCC4)CC3)n(C)c(=O)c2c1 [Compound 690, (R)-6-chloro-3-((1-(3,6-dimethyl-4-oxo-2-(3-oxa-9-azaspiro[5.5]undecan-9-yl)-3,4-dihydroquinazolin-8-yl)ethyl)amino)-N-(methylsulfonyl) picolinamide]"
≥ 5000 nM,250 to 500 nM,"Cc1cc([C@@H](C)Nc2ccc(Cl)nc2C(=O)NS(C)(=O)=O)c2nc(N3CCC(c4cc5ccccn5n4)CC3)n(C)c(=O)c2c1 [Compound 692, (R)-6-chloro-3-((1-(3,6-dimethyl-4-oxo-2-(4-(pyrazolo[1,5-a]pyridin-2-yl)piperidin-1-yl)-3,4-dihydroquinazolin-8-yl)ethyl)amino)-N-(methylsulfonyl) picolinamide]"
1000 to 5000 nM,< 250 nM,"Cc1cc([C@@H](C)Nc2ccc(Cl)nc2C(=O)NS(C)(=O)=O)c2nc(N3Cc4cn(C5CC(F)(F)C5)nc4C3)n(C)c(=O)c2c1 [Compound 693, (R)-6-chloro-3-((1-(2-(2-(3,3-difluorocyclobutyl)-2,6-dihydropyrrolo[3,4-c]pyrazol-5(4H)-yl)-3,6-dimethyl-4-oxo-3,4-dihydroquinazolin-8-yl)ethyl)amino)-N-(methylsulfonyl) picolinamide]"
≥ 5000 nM,250 to 500 nM,"Cc1cc([C@@H](C)Nc2ccc(Cl)nc2C(=O)NS(C)(=O)=O)c2nc(N3CCC(Oc4ccccn4)CC3)n(C)c(=O)c2c1 [Compound 694, (R)-6-chloro-3-((1-(3,6-dimethyl-4-oxo-2-(4-(pyridin-2-yloxy)piperidin-1-yl)-3,4-dihydroquinazolin-8-yl)ethyl)amino)-N-(methylsulfonyl) picolinamide]"
1000 to 5000 nM,250 to 500 nM,"Cc1cc([C@@H](C)Nc2ccc(Cl)nc2C(=O)NS(C)(=O)=O)c2nc(N3CCC(c4nn(C)cc4C#N)CC3)n(C)c(=O)c2c1 [Compound 697, (R)-6-chloro-3-((1-(2-(4-(4-cyano-1-methyl-1H-pyrazol-3-yl)piperidin-1-yl)-3,6-dimethyl-4-oxo-3,4-dihydroquinazolin-8-yl)ethyl)amino)-N-(methylsulfonyl) picolinamide]"
1000 to 5000 nM,250 to 500 nM,"Cc1cc([C@@H](C)Nc2ccc(Cl)nc2C(=O)NS(C)(=O)=O)c2nc(N3Cc4cn(-c5ncc(C#N)cc5C)nc4C3)n(C)c(=O)c2c1 [Compound 698, (R)-6-chloro-3-((1-(2-(2-(5-cyano-3-methylpyridin-2-yl)-2,6-dihydropyrrolo[3,4-c]pyrazol-5(4H)-yl)-3,6-dimethyl-4-oxo-3,4-dihydroquinazolin-8-yl)ethyl)amino)-N-(methylsulfonyl) picolinamide]"
1000 to 5000 nM,250 to 500 nM,"Cc1cc([C@@H](C)Nc2ccc(Cl)nc2C(=O)NS(C)(=O)=O)c2nc(N3C[C@@H]4[C@H](C3)[C@H]4c3cc[nH]n3)n(C)c(=O)c2c1 [Compound 699, 3-(((R)-1-(2-((1R,5S,6R)-6-(1H-pyrazol-3-yl)-3-azabicyclo[3.1.0]hexan-3-yl)-3,6-dimethyl-4-oxo-3,4-dihydroquinazolin-8-yl)ethyl)amino)-6-chloro-N-(methylsulfonyl) picolinamide]"
≥ 5000 nM,250 to 500 nM,"COc1ccc(C2CCN(c3nc4c([C@@H](C)Nc5ccc(Cl)nc5C(=O)NS(C)(=O)=O)cc(C)cc4c(=O)n3C)CC2)cn1 [Compound 700, (R)-6-chloro-3-((1-(2-(4-(6-methoxypyridin-3-yl)piperidin-1-yl)-3,6-dimethyl-4-oxo-3,4-dihydroquinazolin-8-yl)ethyl)amino)-N-(methylsulfonyl) picolinamide]"
≥ 5000 nM,250 to 500 nM,"Cc1cc([C@@H](C)Nc2ccc(Cl)nc2C(=O)NS(C)(=O)=O)c2nc(N3Cc4cn(-c5ncccc5C)nc4C3)n(C)c(=O)c2c1 [Compound 701, (R)-6-chloro-3-((1-(3,6-dimethyl-2-(2-(3-methylpyridin-2-yl)-2,6-dihydropyrrolo[3,4-c]pyrazol-5(4H)-yl)-4-oxo-3,4-dihydroquinazolin-8-yl)ethyl)amino)-N-(methylsulfonyl) picolinamide]"
≥ 5000 nM,250 to 500 nM,"Cc1cc([C@@H](C)Nc2ccc(Cl)nc2C(=O)NS(C)(=O)=O)c2nc(N3CCC(c4nn(C)cc4Cl)CC3)n(C)c(=O)c2c1 [Compound 702, (R)-6-chloro-3-((1-(2-(4-(4-chloro-1-methyl-1H-pyrazol-3-yl)piperidin-1-yl)-3,6-dimethyl-4-oxo-3,4-dihydroquinazolin-8-yl)ethyl)amino)-N-(methylsulfonyl) picolinamide]"
≥ 5000 nM,250 to 500 nM,"COc1cc(C2CCN(c3nc4c([C@@H](C)Nc5ccc(Cl)nc5C(=O)NS(C)(=O)=O)cc(C)cc4c(=O)n3C)CC2)nn1C [Compound 704, (R)-6-chloro-3-((1-(2-(4-(5-methoxy-1-methyl-1H-pyrazol-3-yl)piperidin-1-yl)-3,6-dimethyl-4-oxo-3,4-dihydroquinazolin-8-yl)ethyl)amino)-N-(methylsulfonyl) picolinamide]"
≥ 5000 nM,250 to 500 nM,"COc1ccccc1-n1cc2c(n1)CN(c1nc3c([C@@H](C)Nc4ccc(Cl)nc4C(=O)NS(C)(=O)=O)cc(C)cc3c(=O)n1C)C2 [Compound 705, (R)-6-chloro-3-((1-(2-(2-(2-methoxyphenyl)-2,6-dihydropyrrolo[3,4-c]pyrazol-5(4H)-yl)-3,6-dimethyl-4-oxo-3,4-dihydroquinazolin-8-yl)ethyl)amino)-N-(methylsulfonyl) picolinamide]"

SMILES,IC50 [1],IC50 [2]
"Cc1cc([C@@H](C)Nc2ccc(Cl)nc2C(=O)NS(C)(=O)=O)c2nc(N3[C@@H]4CC[C@H]3C[C@H](n3ncc5ccccc53)C4)n(C)c(=O)c2c1 [Compound 695, 3-(((R)-1-(2-((1R,3S,5S)-3-(1H-indazol-1-yl)-8-azabicyclo[3.2.1]octan-8-yl)-3,6-dimethyl-4-oxo-3,4-dihydroquinazolin-8-yl)ethyl)amino)-6-chloro-N-(methylsulfonyl) picolinamide]",≥ 5000 nM,250 to 500 nM
"Cc1cc([C@@H](C)Nc2ccc(Cl)nc2C(=O)NS(C)(=O)=O)c2nc(N3[C@@H]4CC[C@H]3C[C@@H](n3ncc5ccccc53)C4)n(C)c(=O)c2c1 [Compound 696, 3-(((R)-1-(2-((1R,3R,5S)-3-(1H-indazol-1-yl)-8-azabicyclo[3.2.1]octan-8-yl)-3,6-dimethyl-4-oxo-3,4-dihydroquinazolin-8-yl)ethyl)amino)-6-chloro-N-(methylsulfonyl) picolinamide]",≥ 5000 nM,500 to 1000 nM
